Where two headings read alike, the source gives them in different places.
Assay: Pharmacokinetic parameters (Tmax, AUClast, Cmax) of DD217 in phase II trial patients
Assay type: in vivo, human (patients undergoing knee replacement surgery)
Settings: human, plasma
Source text: The design, eligibility criteria, and outcomes of the phase II clinical trial evaluating the safety and tolerability of DD217 (NCT05189002, ClinicalTrials.gov) have been described previously. Briefly, this was a multicenter, double-blind, randomized, prospective phase II study designed to determine the optimal dosing regimen and to assess the safety and efficacy of DD217 for the prevention of venous thromboembolism (VTE) in patients undergoing knee replacement surgery. Patients were randomized into one of three groups: two groups received oral DD217 at doses of 40 mg or 60 mg once daily, starting on the morning of the first postoperative day, and one group received the active comparator, dalteparin sodium. The treatment duration was 14 days.
In total, data from 52 patients who underwent knee replacement surgery were included in the analysis. Of these, 34 patients received DD217 at daily doses of 40 mg (n = 16) or 60 mg (n = 18), and 18 patients received dalteparin sodium.
To characterize the pharmacokinetic profile of DD217 in our study, three parameters were assessed: Cmax, Tmax, and AUClast.

`CC(=N)N(C)c1ccc(C(=O)Nc2ccc(C)cc2C(=O)Nc2ccc(Cl)cn2)cc1.Cl` [DD217, N-(5-chloropyridin-2-yl)-5-methyl-2-[4-(N-methylacetimidamido)benzamido]benzamide hydrochloride] showed an AUC(0-t) (im, 40 mg, CYP2C9 *1/*2, *1/*3, IM (n = 6), mean ± SD, read-out: AUClast) of 33.9 ± 36.2 ng·h/mL, a Cmax (im, 40 mg, CYP2C9 *1/*2, *1/*3, IM (n = 6), mean ± SD, read-out: Cmax) of 3.72 ± 5.61 ng/mL and a Tmax (im, 40 mg, CYP2C9 *1/*2, *1/*3, IM (n = 6), mean ± SD, read-out: Tmax) of 9 ± 8.17 h. For the same molecule, the AUC(0-t) (im, 40 mg, CYP2C19 *1/*2, IM (n = 1), read-out: AUClast) was 48.5 ng·h/mL, the Cmax (im, 40 mg, CYP2C19 *1/*2, IM (n = 1), read-out: Cmax) was 3.12 ng/mL and the Tmax (im, 40 mg, CYP2C19 *1/*2, IM (n = 1), read-out: Tmax) was 4 h. It also gave an AUC(0-t) (im, 40 mg, CYP3A *1/*22, *1/*3, IM (n = 4), mean ± SD, read-out: AUClast) of 49 ± 48.7 ng·h/mL, a Cmax (im, 40 mg, CYP3A *1/*22, *1/*3, IM (n = 4), mean ± SD, read-out: Cmax) of 6.63 ± 8.63 ng/mL and a Tmax (im, 40 mg, CYP3A *1/*22, *1/*3, IM (n = 4), mean ± SD, read-out: Tmax) of 6.25 ± 3.5 h. The AUC(0-t) (im, 60 mg, CYP2C9 *1/*2, *1/*3, IM (n = 5), mean ± SD, read-out: AUClast) was 89.8 ± 89.3 ng·h/mL, the Cmax (im, 60 mg, CYP2C9 *1/*2, *1/*3, IM (n = 5), mean ± SD, read-out: Cmax) was 9.24 ± 9.59 ng/mL and the Tmax (im, 60 mg, CYP2C9 *1/*2, *1/*3, IM (n = 5), mean ± SD, read-out: Tmax) was 3.2 ± 2.17 h. For the same molecule, the AUC(0-t) (im, 60 mg, CYP2C19 *1/*2, *2/*2, *2/*17, IM + PM (n = 4), mean ± SD, read-out: AUClast) was 32.3 ± 22.5 ng·h/mL, the Cmax (im, 60 mg, CYP2C19 *1/*2, *2/*2, *2/*17, IM + PM (n = 4), mean ± SD, read-out: Cmax) was 3.64 ± 3.51 ng/mL and the Tmax (im, 60 mg, CYP2C19 *1/*2, *2/*2, *2/*17, IM + PM (n = 4), mean ± SD, read-out: Tmax) was 9.5 ± 9.98 h. For the same molecule, the AUC(0-t) (im, 60 mg, CYP3A *1/*3, IM (n = 2), mean ± SD, read-out: AUClast) was 186 ± 211 ng·h/mL, the Cmax (im, 60 mg, CYP3A *1/*3, IM (n = 2), mean ± SD, read-out: Cmax) was 11.9 ± 12.7 ng/mL and the Tmax (im, 60 mg, CYP3A *1/*3, IM (n = 2), mean ± SD, read-out: Tmax) was 3.5 ± 3.54 h. For the same molecule, the AUC(0-t) (oral, 40 mg/day, ABCB1 rs1045642 T>C, C/C (n 5), read-out: AUClast (SD)) was 17.8 ng·h/mL, the Cmax (oral, 40 mg/day, ABCB1 rs1045642 T>C, C/C (n 5), read-out: Cmax (SD)) was 2.42 ng/mL and the Tmax (oral, 40 mg/day, ABCB1 rs1045642 T>C, C/C (n 5), read-out: Tmax (SD)) was 17.2 h. It also gave an AUC(0-t) (oral, 40 mg/day, ABCB1 rs1045642 T>C, T/C (n 7), read-out: AUClast (SD)) of 63.6 ng·h/mL, a Cmax (oral, 40 mg/day, ABCB1 rs1045642 T>C, T/C (n 7), read-out: Cmax (SD)) of 8.03 ng/mL and a Tmax (oral, 40 mg/day, ABCB1 rs1045642 T>C, T/C (n 7), read-out: Tmax (SD)) of 6 h. For the same molecule, the AUC(0-t) (oral, 40 mg/day, ABCB1 rs1045642 T>C, T/T (n 4), read-out: AUClast (SD)) was 35.5 ng·h/mL, the Cmax (oral, 40 mg/day, ABCB1 rs1045642 T>C, T/T (n 4), read-out: Cmax (SD)) was 4.63 ng/mL and the Tmax (oral, 40 mg/day, ABCB1 rs1045642 T>C, T/T (n 4), read-out: Tmax (SD)) was 9.5 h. For the same molecule, the AUC(0-t) (oral, 40 mg/day, ABCB1 rs1128503 T>C, C/C (n 8), read-out: AUClast (SD)) was 34.6 ng·h/mL, the Cmax (oral, 40 mg/day, ABCB1 rs1128503 T>C, C/C (n 8), read-out: Cmax (SD)) was 4.84 ng/mL and the Tmax (oral, 40 mg/day, ABCB1 rs1128503 T>C, C/C (n 8), read-out: Tmax (SD)) was 12.9 h. For the same molecule, the AUC(0-t) (oral, 40 mg/day, ABCB1 rs1128503 T>C, C/T (n 6), read-out: AUClast (SD)) was 46.4 ng·h/mL, the Cmax (oral, 40 mg/day, ABCB1 rs1128503 T>C, C/T (n 6), read-out: Cmax (SD)) was 5.24 ng/mL and the Tmax (oral, 40 mg/day, ABCB1 rs1128503 T>C, C/T (n 6), read-out: Tmax (SD)) was 9.5 h. It also gave an AUC(0-t) (oral, 40 mg/day, ABCB1 rs1128503 T>C, T/T (n 2), read-out: AUClast (SD)) of 60.9 ng·h/mL, a Cmax (oral, 40 mg/day, ABCB1 rs1128503 T>C, T/T (n 2), read-out: Cmax (SD)) of 8.35 ng/mL and a Tmax (oral, 40 mg/day, ABCB1 rs1128503 T>C, T/T (n 2), read-out: Tmax (SD)) of 3 h. The AUC(0-t) (oral, 40 mg/day, ABCB1 rs2032582 G>T, G/G (n 8), read-out: AUClast (SD)) was 34.6 ng·h/mL, the Cmax (oral, 40 mg/day, ABCB1 rs2032582 G>T, G/G (n 8), read-out: Cmax (SD)) was 4.84 ng/mL and the Tmax (oral, 40 mg/day, ABCB1 rs2032582 G>T, G/G (n 8), read-out: Tmax (SD)) was 12.9 h. It also gave an AUC(0-t) (oral, 40 mg/day, ABCB1 rs2032582 G>T, G/T (n 6), read-out: AUClast (SD)) of 46.4 ng·h/mL, a Cmax (oral, 40 mg/day, ABCB1 rs2032582 G>T, G/T (n 6), read-out: Cmax (SD)) of 5.24 ng/mL and a Tmax (oral, 40 mg/day, ABCB1 rs2032582 G>T, G/T (n 6), read-out: Tmax (SD)) of 9.5 h. It also gave an AUC(0-t) (oral, 40 mg/day, ABCB1 rs2032582 G>T, T/T (n 2), read-out: AUClast (SD)) of 60.9 ng·h/mL, a Cmax (oral, 40 mg/day, ABCB1 rs2032582 G>T, T/T (n 2), read-out: Cmax (SD)) of 8.35 ng/mL and a Tmax (oral, 40 mg/day, ABCB1 rs2032582 G>T, T/T (n 2), read-out: Tmax (SD)) of 3 h. It also gave an AUC(0-t) (oral, 40 mg/day, ABCB1 rs4148738 C>T, C/C (n 2), read-out: AUClast (SD)) of 60.9 ng·h/mL, a Cmax (oral, 40 mg/day, ABCB1 rs4148738 C>T, C/C (n 2), read-out: Cmax (SD)) of 8.35 ng/mL and a Tmax (oral, 40 mg/day, ABCB1 rs4148738 C>T, C/C (n 2), read-out: Tmax (SD)) of 3 h. It also gave an AUC(0-t) (oral, 40 mg/day, ABCB1 rs4148738 C>T, T/C (n 6), read-out: AUClast (SD)) of 46.4 ng·h/mL, a Cmax (oral, 40 mg/day, ABCB1 rs4148738 C>T, T/C (n 6), read-out: Cmax (SD)) of 5.24 ng/mL and a Tmax (oral, 40 mg/day, ABCB1 rs4148738 C>T, T/C (n 6), read-out: Tmax (SD)) of 9.5 h. The AUC(0-t) (oral, 40 mg/day, ABCB1 rs4148738 C>T, T/T (n 8), read-out: AUClast (SD)) was 34.6 ng·h/mL, the Cmax (oral, 40 mg/day, ABCB1 rs4148738 C>T, T/T (n 8), read-out: Cmax (SD)) was 4.84 ng/mL and the Tmax (oral, 40 mg/day, ABCB1 rs4148738 C>T, T/T (n 8), read-out: Tmax (SD)) was 12.9 h. For the same molecule, the AUC(0-t) (oral, 40 mg, CYP2C8 rs10509681 T/C (n 3), read-out: AUClast (SD)) was 46.9 ng·h/mL, the Cmax (oral, 40 mg, CYP2C8 rs10509681 T/C (n 3), read-out: Cmax (SD)) was 7.06 ng/mL and the Tmax (oral, 40 mg, CYP2C8 rs10509681 T/C (n 3), read-out: Tmax (h, SD)) was 16.7 h. For the same molecule, the AUC(0-t) (oral, 40 mg, CYP2C8 rs10509681 T/T (n 13), read-out: AUClast (SD)) was 41.2 ng·h/mL, the Cmax (oral, 40 mg, CYP2C8 rs10509681 T/T (n 13), read-out: Cmax (SD)) was 5.05 ng/mL and the Tmax (oral, 40 mg, CYP2C8 rs10509681 T/T (n 13), read-out: Tmax (h, SD)) was 8.92 h. It also gave an AUC(0-t) (oral, 40 mg, CYP2C8 rs11572080 C/C (n 13), read-out: AUClast (SD)) of 41.2 ng·h/mL, a Cmax (oral, 40 mg, CYP2C8 rs11572080 C/C (n 13), read-out: Cmax (SD)) of 5.05 ng/mL and a Tmax (oral, 40 mg, CYP2C8 rs11572080 C/C (n 13), read-out: Tmax (h, SD)) of 8.92 h. For the same molecule, the AUC(0-t) (oral, 40 mg, CYP2C8 rs11572080 C/T (n 3), read-out: AUClast (SD)) was 46.9 ng·h/mL, the Cmax (oral, 40 mg, CYP2C8 rs11572080 C/T (n 3), read-out: Cmax (SD)) was 7.06 ng/mL and the Tmax (oral, 40 mg, CYP2C8 rs11572080 C/T (n 3), read-out: Tmax (h, SD)) was 16.7 h. For the same molecule, the AUC(0-t) (oral, 40 mg, CYP2C9 *1/*1, NM (n = 8), mean ± SD, read-out: AUClast) was 54.5 ± 49.4 ng·h/mL, the Cmax (oral, 40 mg, CYP2C9 *1/*1, NM (n = 8), mean ± SD, read-out: Cmax) was 7.28 ± 8.71 ng/mL and the Tmax (oral, 40 mg, CYP2C9 *1/*1, NM (n = 8), mean ± SD, read-out: Tmax) was 8 ± 7.15 h. For the same molecule, the AUC(0-t) (oral, 40 mg, CYP2C9 *2/*3, *3/*3, PM (n = 2), mean ± SD, read-out: AUClast) was 18.6 ± 22.5 ng·h/mL, the Cmax (oral, 40 mg, CYP2C9 *2/*3, *3/*3, PM (n = 2), mean ± SD, read-out: Cmax) was 3.11 ± 3.75 ng/mL and the Tmax (oral, 40 mg, CYP2C9 *2/*3, *3/*3, PM (n = 2), read-out: Tmax) was 24 h. For the same molecule, the AUC(0-t) (oral, 40 mg, CYP2C19 *1/*1, NM (n = 6), mean ± SD, read-out: AUClast) was 33.1 ± 48.1 ng·h/mL, the Cmax (oral, 40 mg, CYP2C19 *1/*1, NM (n = 6), mean ± SD, read-out: Cmax) was 5.25 ± 8.82 ng/mL and the Tmax (oral, 40 mg, CYP2C19 *1/*1, NM (n = 6), mean ± SD, read-out: Tmax) was 15.5 ± 9.95 h.

From publication PMC12655527, “An Investigational Study on the Role of ADME Agents’ Genetic Variation on DD217 Pharmacokinetics and Safety Profile” (Pharmaceuticals, 2025)
